This note sets out measurements from patent publication US20230119479A1, “A HISTONE DEACETYLASE INHIBITOR HAVING A NITROGEN-CONTAINING AROMATIC HETEROCYCLYL GROUP” (SHIONOGI & CO., LTD., priority 2019, published 2023).

The target of this test is T1, HDAC2 Human recombinant C-terminal FLAG-tag (Homo sapiens, UniProt Q92769).
T1 construct: FLAG (C); purchased BPS Bioscience 50052
Briefly: Measurement of HDAC2 enzyme inhibitory activity (HTRF). The following applies: recombinant HDAC2, H3K9ac peptide, 3 hours room temperature; read-out: HDAC2 IC50. The test is classed as biochemical. An outline of the steps:
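Compounds were tested at 8 points in 3-fold dilutions from 99 μM final (n=2) against FLAG-tagged HDAC2 with biotinylated H3K9ac (1-21) peptide (0.6 μM as added). The reaction ran 3 h at room temperature in Tris pH 8.0 buffer, then was stopped with SAHA. Deacetylated product was detected by HTRF (Eu-anti-H3K9me0 antibody, streptavidin-XL665) as the 665/615-620 nm ratio.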
(Time-resolved FRET reads energy transfer from a long-lived donor to a nearby acceptor.)

Structures are written as SMILES.

T1 sequence (Q92769 whole entry): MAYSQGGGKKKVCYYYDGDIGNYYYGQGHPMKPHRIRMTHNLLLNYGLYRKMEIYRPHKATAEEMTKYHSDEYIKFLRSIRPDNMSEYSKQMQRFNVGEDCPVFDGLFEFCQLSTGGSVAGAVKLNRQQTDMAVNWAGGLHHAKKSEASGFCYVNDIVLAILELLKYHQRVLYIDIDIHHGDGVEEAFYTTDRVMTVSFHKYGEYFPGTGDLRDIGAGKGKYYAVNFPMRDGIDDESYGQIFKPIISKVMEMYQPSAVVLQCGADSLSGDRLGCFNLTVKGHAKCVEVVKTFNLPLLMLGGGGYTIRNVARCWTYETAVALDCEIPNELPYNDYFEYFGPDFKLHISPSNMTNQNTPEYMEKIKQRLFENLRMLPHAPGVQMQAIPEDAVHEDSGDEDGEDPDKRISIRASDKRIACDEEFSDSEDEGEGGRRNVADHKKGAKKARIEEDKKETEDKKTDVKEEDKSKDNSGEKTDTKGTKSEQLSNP

With `Nc1ccc(-c2ccc(F)nc2)cc1NC(=O)c1ccc(N2CCC2)nn1` [Compound I-266], the IC50 (in general, the point on the concentration scale where inhibition reaches its midpoint) was determined as 0.14 µM.

As to `Nc1ccc(-n2ccc(F)c2)cc1NC(=O)c1cnc(N2CCOCC2)cn1` [Compound I-267], the IC50 is 0.1 µM.

As to `CCOc1ccc(C(=O)Nc2cc(-c3ccc(F)nc3)ccc2N)nn1` [Compound I-268], the 50% inhibitory concentration (IC50) was found to be 0.13 µM.

With `CCOc1ccc(C(=O)Nc2cc(-c3cnn(C)c3)ccc2N)nn1` [Compound I-269], the IC50 turned out to be 0.18 µM.

For `Cn1cc(-c2ccc(N)c(NC(=O)c3ccc(Cl)nn3)c2)cn1` [Compound I-270], the IC50 was 0.97 µM.

In the case of `Nc1ccc(-c2ccc(F)nc2)cc1NC(=O)c1ccc(N2CCCC2)nn1` [Compound I-271], the IC50 was found to be 0.09 µM.

For `Cn1cc(-c2ccc(N)c(NC(=O)c3ccc(N4CCCC4)nn3)c2)cn1` [Compound I-272], the 50% inhibitory concentration (IC50) was determined as 0.23 µM.

With `CC(C)Nc1ccc(C(=O)Nc2cc(-c3ccc(F)nc3)ccc2N)nn1` [Compound I-273], the IC50 is 0.23 µM.

For the compound `CN(C)c1ccc(C(=O)Nc2cc(-c3cnn(C)c3)ccc2N)nn1` [Compound I-274], the IC50 came to 0.24 µM.

As to `Cn1cc(-c2ccc(N)c(NC(=O)c3ccc(N4CCOCC4)nn3)c2)cn1` [Compound I-275], the IC50 came out at 0.26 µM.

For the compound `CN(Cc1ccccn1)c1cnc(C(=O)Nc2cc(-c3ccc(F)nc3)ccc2N)cn1` [Compound I-276], the IC50 was 0.04 µM.

For `Nc1ccc(-c2ccc(F)nc2)cc1NC(=O)c1cnc(NCc2ccccn2)cn1` [Compound I-277], the IC50 was 0.04 µM.

For `Nc1ccc(-c2ccc(F)nc2)cc1NC(=O)c1cnc(N2CCCOCC2)cn1` [Compound I-278], the IC50 came to 0.05 µM.

`Nc1ccc(-c2ccc(F)nc2)cc1NC(=O)c1cnc(N2Cc3cccnc3C2)cn1` [Compound I-279]: the IC50 was determined as 0.05 µM.

As for `CC(=O)Nc1ccc(C(=O)Nc2nc(-c3ccccc3)ccc2N)nc1` [Compound I-281], the IC50 worked out at 0.23 µM.

On to `Nc1ccc(-c2ccc(F)nc2)cc1NC(=O)c1cnc(N2CC(O)C2)cn1` [Compound I-282], for which the IC50 stood at 0.05 µM.

`COC1CN(c2cnc(C(=O)Nc3cc(-c4ccc(F)nc4)ccc3N)cn2)C1` [Compound I-283]: the IC50 worked out at 0.05 µM.

In the case of `CC(C)(O)C1CN(c2cnc(C(=O)Nc3cc(-c4ccc(F)nc4)ccc3N)cn2)C1` [Compound I-284], the IC50 worked out at 0.08 µM.

Turning to `CCNc1cnc(C(=O)Nc2cc(-c3ccc(F)nc3)ccc2N)cn1` [Compound I-285], the IC50 was 0.04 µM.

As to `Nc1ccc(-c2ccc(F)nc2)cc1NC(=O)c1cnc(NC2CCOCC2)cn1` [Compound I-286], the IC50 is 0.07 µM.

For the compound `Nc1ccc(-c2ccc(F)nc2)cc1NC(=O)c1cnc(OC2CCOCC2)cn1` [Compound I-287], the IC50 amounted to 0.17 µM.

For the compound `Nc1ccc(-c2ccc(F)nc2)cc1NC(=O)c1cnc(NCC(F)(F)F)cn1` [Compound I-288], the IC50 stood at 0.23 µM.

Regarding `CC(C)Oc1ccc(C(=O)Nc2cc(-c3ccc(F)nc3)ccc2N)nn1` [Compound I-289], the IC50 was found to be 0.2 µM.

In the case of `Cn1cc(-c2ccc(N)c(NC(=O)c3cnc(NC4CCOCC4)cn3)c2)cn1` [Compound I-290], the IC50 came out at 0.11 µM.

As to `Cn1cc(-c2ccc(N)c(NC(=O)c3cnc(OC4CCOCC4)cn3)c2)cn1` [Compound I-291], the IC50 worked out at 0.31 µM.

Consider `Cn1cc(-c2ccc(N)c(NC(=O)c3cnc(NCC(F)(F)F)cn3)c2)cn1` [Compound I-292], for which the IC50 worked out at 0.17 µM.

With `CC(C)Oc1ccc(C(=O)Nc2cc(-c3cnn(C)c3)ccc2N)nn1` [Compound I-293], the IC50 was found to be 0.34 µM.

`Cn1cc(-c2ccc(N)c(NC(=O)c3cnc(NCc4ccccn4)cn3)c2)cn1` [Compound I-294]: the IC50 turned out to be 0.07 µM.

`CN(Cc1ccccn1)c1cnc(C(=O)Nc2cc(-c3cnn(C)c3)ccc2N)cn1` [Compound I-295]: the IC50 was 0.08 µM.

Regarding `Cn1cc(-c2ccc(N)c(NC(=O)c3cnc(N4CCCOCC4)cn3)c2)cn1` [Compound I-296], the IC50 was 0.07 µM.
